Where two headings read alike, the source gives them in different places.
System: Male Sprague-Dawley rats
Details: six-hour delay

Compound: Nc1c2c(nc3ccccc13)CCCC2 [Tacrine, tacrine]
- retention (errors in the retention session) (3 mg/kg s.c. immediately after the sampling phase): not
- retention (errors in the retention session) (10 mg/kg s.c. immediately after the sampling phase): significantly improved retention

— patent publication US20060154922A1, “Muscarinic agonists” (ELILILLY AND COMPANY, priority 2003, published 2006)
